Measured values: PMC11855866 (International Journal of Molecular Sciences, 2025)
In brackets after ≈: the same amount, converted by molar mass. Where two headings read alike, the source gives them in different places.

Columns and labels:
[1] = Analysis of drug solubility (Cobs by HPLC); type: physicochemical
Protocol: The drug content in the samples was determined using a previously described HPLC method. The analysis was performed on an Ultimate 3000 HPLC system (Dionex Co., Germering, Germany), equipped with a UV–Vis detector and a TSKgel ODS-100V column (particle size: 5 µm; dimensions: 4.6 mm i.d. × 15 cm; Tosoh Co., Tokyo, Japan). The mobile phase consisted of MeCN and 20 mM KH2PO4 buffer (pH 3.0) in an appropriate ratio. The flow rate was maintained at 1.0 mL/min, with the column temperature set to 30 °C. All compounds were detected at 228 nm.
Some samples included 0.05% (v/v) Tween-80. For experiments involving BSA, a separate solution was prepared by dissolving 4.5 mg/mL of BSA (cat. #422381B, VWR) in the same PBS (pH 7.4), with or without 0.05% (v/v) Tween-80. All samples were incubated at 37 °C with shaking for 24 h. After incubation, the samples were either centrifuged at 13,500 rpm (RCF = 12,225 g) for 15 min using a Micro Star 12 microcentrifuge (VWR), and 150 µL of the supernatant was collected for HPLC analysis, or filtered using 0.22 µm PVDF syringe filters (13 mm i.d., cat. #514-1251, VWR) or AcroPrep™ Advance 96-well filter plates (Pall Corporation, Dreieich, Germany) with various molecular weight cut-offs.

A549 cells [2] = test: Doxorubicin accumulation assay, A549; type: cell-based, human; conditions: 50 µM DOXO and 1.56 µM GLIM, 3 h
Protocol: (§1) Cells were seeded at a density of 2 × 10^4 cells per well in black 96-well plates as described in Section 3.6.

[3] = cited from earlier work
MC38 model = tested on: MC38 model; set-up: method as in PMID 36033393; conditions: GLIM 5 mg/kg every 2 days, i.p.; cited from earlier work
MC38 melanoma model = tested on: MC38 melanoma model; set-up: method as in PMID 36033393; conditions: GLIM 5 mg/kg every 2 days, i.p.; cited from earlier work
[4] = tested on: A549, HepG2, MCF-7, and U-87MG; test: Doxorubicin accumulation assay, sensitive cell lines; type: cell-based, human
Protocol: as §1

[5] = tested on: 4T1 breast cancer and B16F10 melanoma xenografts; conditions: 4T1, B16F10 xenografts, MMTV-PyMT; cited from earlier work
[6] = MTT cytotoxicity / synergy assay, 72 h, MCF-7; type: cell-based, human; conditions: human, MCF-7 cells
Protocol: (§2) Stock solutions of the tested compounds were first prepared in DMSO at 200-fold the intended final concentration. […] The cells were treated for 72 h under the same conditions.
(§3) Following treatment, 25 μL of MTT solution was added to each well, and the plates were incubated for 2 h at 37 °C. […] IC₅₀ values, indicating the concentration required to reduce cell viability by 50% compared to untreated controls (set as 100% viability), were calculated using GraphPad Prism 9 software (GraphPad Software, San Diego, CA, USA). All data from this preliminary cytotoxic assay were analyzed by ANOVA followed by Tukey’s post hoc test for multiple comparisons, with significance set at p < 0.05. A similar statistical approach was used for the rest of the experimental work presented in this study.

MCF-7 cells [7] = test: MTT cytotoxicity / synergy assay, 72 h, MCF-7; type: cell-based, human; conditions: 72 h
Protocol: as §2, §3

multiple cell lines = tested on: multiple cell lines; set-up: method as in Alkhalil et al. and others [10,11,16,26]; conditions: range reported; ref Alkhalil et al. and others [10,11,16,26]; read-out: cytotoxicity (IC50 range over cell lines), literature; cited from earlier work
A549 cells [8] = test: MTT cytotoxicity / synergy assay, 72 h, A549; conditions: Homo sapiens, A549, 72 h, read-out: IC50 Value in Specific Cell Line, A549, MTT, 72 h; n.d. = IC50 not achieved within concentrations tested
Protocol: (§4) The synergistic effects of drug combinations were studied in various cancer cell lines, including MCF-7 (human breast cancer), A549 (human lung cancer), U-87 MG (human malignant glioma), HepG2 (human liver cancer), and HUH7 (human liver cancer). HMEC-1, an immortalized human microvascular endothelial cell line, was used as a model for normal cells. All cell lines were purchased from ATCC (Rockville, MD, USA).
(§5) The cancer cell lines were cultured in Dulbecco’s Modified Eagle’s Medium (DMEM; Sigma-Aldrich) supplemented with 10% FBS and 1% penicillin/streptomycin mixture (10,000 U/mL penicillin and 10 mg/mL streptomycin; Sigma-Aldrich) at 37 °C in a humidified atmosphere with 5% CO2.
(§6) For the MTT assay, exponentially growing cells were seeded into 96-well plates at a density of 5 × 10³ cells per well. After 24 h of incubation, the medium was replaced with 100 µL of fresh medium containing the tested compounds. After 72 h of treatment, cell viability was assessed using the MTT assay as described earlier. […] IC50 values were calculated using GraphPad Prism 9 software (GraphPad Software).

[9] = DLS particle size measurements; type: physicochemical
Protocol: Dynamic light scattering (DLS) measurements were performed using a Zetasizer Nano ZS instrument (Malvern Instruments, Malvern, UK). Samples of 2 mL were placed in disposable PMMA cuvettes (cat. #634-0677; VWR, Gdańsk, Poland) and measured at 37 °C. To ensure accuracy, each sample was measured at least three times. The data were processed using DTS v6.2 software (Malvern Instruments).

[10] = MTT cytotoxicity, range over the cell panel; type: cell-based; conditions: human; range over the tested cell lines; read-out: cytotoxicity (IC50 range over cell lines), our study
Protocol: HMEC-1, an immortalized human microvascular endothelial cell line, was used as a model for normal cells.
as §5, §6

HSA = tested on: HSA; set-up: method as in Figure S2 [39–71]; conditions: ref Figure S2 [39–71]; cited from earlier work
CT26 colon cancer model = tested on: CT26 colon cancer model; set-up: method as in PMID 36033393; conditions: GLIM 5 mg/kg every 2 days, i.p.; cited from earlier work
U-87MG cells = test: MTT cytotoxicity / synergy assay, 72 h, U-87MG; type: cell-based; conditions: Homo sapiens, n.d. = IC50 not achieved within concentrations tested, read-out: IC50 Value in Specific Cell Line, U-87MG
Protocol: as §4, §5, §6

HepG2 cells = test: MTT cytotoxicity / synergy assay, 72 h, HepG2; conditions: Homo sapiens, HepG2, 72 h, read-out: IC50 Value in Specific Cell Line, HepG2, MTT, 72 h; n.d. = IC50 not achieved within concentrations tested
Protocol: as §4, §5, §6

MCF-7 cells [11] = conditions: cited from earlier work

concentration up to which Cobs matches the expected concentration ([1]; GLIM only in PBS pH 7.4, 37 °C, 24 h, centrifugation): up to 100 µM
observed concentration (Cobs) ([1]; GLIM only, 0.22 µm syringe filters, all tested samples): 8.6 to 16.6 µM
solubility kinetic at 24 h ([1]; PBS, pH 7.4, aqueous buffer, read-out: observed concentration (Cobs) above the threshold): ~5 µM (≈ 2.45 µg/mL)
d¯I of drug aggregates ([9]; PBS pH 7.4, 37 °C, […] BSA, GLIM beyond 200 µM): approx. 353 nm
diameter of aggregates ([9]; absence of BSA, buffers and culture media): over 300 nm
SMILES: CCC1=C(C)CN(C(=O)NCCc2ccc(S(=O)(=O)NC(=O)N[C@H]3CC[C@H](C)CC3)cc2)C1=O [GLIM, Glimepiride]
increase in DOXO level compared to DOXO monotherapy (A549 cells [2]): 227%
logP [3]: 3.81
increase in CD8+ T cell numbers (MC38 model): < 10%
reduction of tumor mass (MC38 melanoma model): 57%
increase of DOXO levels [4]: up to 2.3 times
effect on tumor growth and metastasis [5]: no effect
viability at 72 h ([6]; 0.05% Tween-80, read-out: MCF-7 viability with 0.05% Tween-80): 71.2%
viability at 72 h ([6]; before addition of 0.05% Tween-80, read-out: MCF-7 viability without Tween-80): 95.9%
decrease in cell viability caused by 0.05% Tween-80 (MCF-7 cells [7]; with vs. without 0.05% Tween-80): 24.6%
IC50 (MCF-7 cells [7]; Homo sapiens, MCF7, 72 h, MTT, n.d. = IC50 not achieved within concentrations tested, read-out: IC50 Value in Specific Cell Line, MCF-7): 175 µM
IC50 (multiple cell lines): 89.4 to 426 µM
IC50 (A549 cells [8]): 353 µM
IC50 at 72 h [10]: 135 to 473 µM
nKa (global affinity constant, HSA) (HSA): 910000 M⁻¹
increase in CD8+ T cell infiltration (CT26 colon cancer model): about 100%
reduction of tumor mass (CT26 colon cancer model): 45%
IC50 (U-87MG cells): 186 µM
IC50 (HepG2 cells): 177 µM
IC50 (MCF-7 cells [11]; calculated by the authors from the results of Faridi et al., read-out: IC50 value, MCF-7): 79.8 µM
IC50 (MCF-7 cells [11]; read-out: IC50, MCF-7): 50 µM
